Experimental data published in US20240287138A1, “CYCLIC PEPTIDES FOR INHIBITING TNF RECEPTOR 1 ACTIVITY” (Merck Sharp & Dohme LLC, priority 2023, published 2024).
Numbered stars: 1 amine (or outer) side, 2 acyl side, 3 side chain; on linkers, the order of the positions; unused ones are H or OH. Bridge positions count the residues as written; N and C are the ends. Square brackets hold non-standard residues; d marks the D form. Peptide text beside a SMILES is read from it. Trp(βS-Me,7-OMe) = COc1cccc2c([C@H](C)[C@H](N)C(=O)O)c[nH]c12; Trp(βS-Me) = C[C@@H](c1c[nH]c2ccccc12)[C@H](N)C(=O)O; Trp(7-CN) = N#Cc1cccc2c(C[C@H](N)C(=O)O)c[nH]c12; Trp(7-Cl) = N[C@@H](Cc1c[nH]c2c(Cl)cccc12)C(=O)O; Phe(4-CONH2) = NC(=O)c1ccc(C[C@H](N)C(=O)O)cc1; Phe(4-COOH) = N[C@@H](Cc1ccc(C(=O)O)cc1)C(=O)O; 4Pal(3S-Me) = C[C@@H](c1ccncc1)[C@H](N)C(=O)O; Trp(7-aza) = N[C@@H](Cc1c[nH]c2ncccc12)C(=O)O; Phe(4-CH2NH2) = NCc1ccc(C[C@H](N)C(=O)O)cc1; αMeW = C[C@](N)(Cc1c[nH]c2ccccc12)C(=O)O; Lys(N3) = [N-]=[N+]=NCCCC[C@H](N)C(=O)O; X1 = O=C([C@@H]1CC[C@H](N[*:1])C1)[*:2]; X68 = O=C([C@@H]1CSCCN1[*:1])[*:2]; Pip(4-aza) = O=C(O)[C@@H]1CNCCN1; 4Pal = N[C@@H](Cc1ccncc1)C(=O)O; NMeE = CN[C@@H](CCC(=O)O)C(=O)O; dHyp = O=C(O)[C@H]1C[C@H](O)CN1; X7 = CC[C@@H](C(=O)[*:1])[*:2]; Ahp(2) = CCCCC[C@H](N)C(=O)O; αMeS = C[C@](N)(CO)C(=O)O; Nle = CCCC[C@H](N)C(=O)O; dNMeA = CN[C@H](C)C(=O)O; Dap = NC[C@H](N)C(=O)O; Sar = CNCC(=O)O

These compounds were tested against T1, human soluble TNFR1 (sTNFR1) (Homo sapiens, UniProt P19438) (assay: Human sTNFR1-peptide displacement assay (LanthaScreen Eu TR-FRET binding assay)).
T1 construct: made in house; host or cells: Sf21 (baculovirus)
T1 sequence (P19438 with tags, fused parts or gaps): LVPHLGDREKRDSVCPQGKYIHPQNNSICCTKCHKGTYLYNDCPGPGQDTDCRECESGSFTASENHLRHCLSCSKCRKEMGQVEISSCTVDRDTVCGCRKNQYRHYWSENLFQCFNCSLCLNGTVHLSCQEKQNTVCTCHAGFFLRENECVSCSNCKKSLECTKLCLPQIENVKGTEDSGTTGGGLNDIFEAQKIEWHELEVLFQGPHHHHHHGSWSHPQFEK
Experimental: A. Procedure for Human sTNFR1-Peptide Displacement Assay
The affinity was determined using LanthaScreen Eu-based time-resolved fluorescence resonance energy transfer (TR-FRET)-based binding assay.
A TR-FRET assay measuring the displacement of biotinylated peptide SEQ ID NO. 1 from human soluble TNFR1 (sTNFR1) in a pre-formed complex by a macrocyclic peptide yields the affinity (Kd^app) of the cyclic peptide for sTNFR1. The reagents for the assay include: the C′-terminally 6His-tagged sTNFR1 (residues 1-211) protein purified from a Sf21 baculovirus expression system, the biotin-tagged B0372 peptide described in section “Preparation of Final Compounds”, part E, the LanthaScreen™ anti-His Tag Europium donor (Life Technologies Corporation (San Diego, CA), cat. #PV5597), and a streptavidin-conjugate Alexa Fluor™ 647 acceptor (Invitrogen (Waltham, MA), cat. #S32357). Time-resolved TR-FRET is achieved when sTNFR1 is bound to biotinylated peptide SEQ ID NO. 1 through coupling of the donor and acceptor FRET pair.
100 nM biotinylated peptide SEQ ID NO. […] 100 nM biotinylated peptide SEQ ID NO. 1 was chosen as it reflects the ˜Kd for this complex. After 30 min at ambient temperature, each test peptide (2 mM stock in DMSO) is titrated in a 20 point, ˜3-fold discrete dose-response using an acoustic-dispense liquid handler. Specifically, 80 nL of peptide/DMSO is transferred into a ProxiPlate-384 Plus 384-well assay plate (PerkinElmer, cat. #6008289). To this plate, 8 μL of the previously formed sTNFR 1-biotinylated peptide SEQ ID NO. 1 complex is added and allowed to reach binding equilibrium with the test peptide at ambient temperature for 90 min.
The TR-FRET signal is measured with the following EnVision® settings: excitation laser at 337 nm; emission1=615 nm, emission2=665 nm, LANCE/DELFIA dichroic mirror, delay time=[…]. The signal of each well is determined as the ratio of the emission at 665 nm to that at 615 nm. Percent displacement is determined by normalization to control wells containing DMSO (0%) or a saturating concentration of a displaceable peptide (100%). The %-effect as a function of peptide concentration is fit to a five-parameter logistic fit based on the Morrison equation to account for tight binding kinetics.

Row | Compound | IC50 [nM] | Kd [nM]
1 | C[C@@H](c1c[nH]c2ccccc12)[C@@H]1NC(=O)[C@H](CN)NC(=O)[C@H](Cc2ccncc2)NC(=O)[C@H](CCCCN=[N+]=[N-])NC(=O)CSC[C@@H](C(N)=O)NC(=O)[C@](C)(Cc2c[nH]c3ccccc23)NC(=O)CN(C)C(=O)[C@H](Cc2ccc(CN)cc2)NC(=O)[C@H](Cc2ccc(C(=O)O)cc2)NC(=O)[C@](C)(CO)NC(=O)[C@H](Cc2c[nH]c3c(Cl)cccc23)NC(=O)[C@H](Cc2ccncc2)NC(=O)[C@H](CC(N)=O)NC(=O)[C@H]2CCCN2C1=O [SEQ ID NO. 245] ({CH2CO}-[Lys(N3)][4Pal][Dap][Trp(βS-Me)][dP]N[4Pal][Trp(7-Cl)][αMeS][Phe(4-COOH)][Phe(4-CH2NH2)][Sar][αMeW]C-NH2; thioether N-14) | 0.95 | 
2 | CCCC[C@@H]1NC(=O)[C@H](CC)SC[C@@H](C(N)=O)NC(=O)[C@H]([C@@H](C)c2c[nH]c3c(OC)cccc23)NC(=O)CN(C)C(=O)[C@H](Cc2ccc(O)cc2)NC(=O)[C@H](Cc2ccc(C(N)=O)cc2)NC(=O)[C@](C)(CO)NC(=O)[C@H](Cc2c[nH]c3c(Cl)cccc23)NC(=O)[C@H](Cc2ccncc2)NC(=O)[C@H](CC(N)=O)NC(=O)[C@H](CCC(=O)O)N(C)C(=O)[C@H](Cc2c[nH]c3ccccc23)NC(=O)[C@@H]2CSCCN2C(=O)[C@H](Cc2ccncc2)NC1=O [SEQ ID NO. 246] ([Nle][4Pal][X68]W[NMeE]N[4Pal][Trp(7-Cl)][αMeS][Phe(4-CONH2)]Y[Sar][Trp(βS-Me,7-OMe)]C-NH2; linker N-14 via X7) | 1.15 | 
3 | CCCC[C@@H]1NC(=O)CSC[C@@H](C(=O)NCC(=O)N[C@@H](CCC(=O)O)C(=O)N[C@@H](CCC(=O)O)C(N)=O)NC(=O)[C@H]([C@@H](C)c2c[nH]c3c(OC)cccc23)NC(=O)CN(C)C(=O)[C@H](Cc2ccc(O)cc2)NC(=O)[C@H](Cc2ccc(C(=O)O)cc2)NC(=O)[C@](C)(CO)NC(=O)[C@H](Cc2c[nH]c3c(Cl)cccc23)NC(=O)[C@H](Cc2ccncc2)NC(=O)[C@H](CC(N)=O)NC(=O)[C@H](CCC(=O)O)N(C)C(=O)[C@H](Cc2c[nH]c3ncccc23)NC(=O)[C@@H]2CNCCN2C(=O)[C@H](Cc2ccncc2)NC1=O [SEQ ID NO. 255] ({CH2CO}-[Nle][4Pal][Pip(4-aza)][Trp(7-aza)][NMeE]N[4Pal][Trp(7-Cl)][αMeS][Phe(4-COOH)]Y[Sar][Trp(βS-Me,7-OMe)]CGEE-NH2; thioether N-14) | 0.7 | 1.01
4 | CCCC[C@@H]1NC(=O)CSC[C@@H](C(N)=O)NC(=O)[C@H]([C@@H](C)c2c[nH]c3c(OC)cccc23)NC(=O)CN(C)C(=O)[C@H](Cc2ccc(O)cc2)NC(=O)[C@H](Cc2ccc(C(=O)O)cc2)NC(=O)[C@](C)(CO)NC(=O)[C@H](Cc2c[nH]c3c(Cl)cccc23)NC(=O)[C@H](Cc2ccncc2)NC(=O)[C@H](CC(N)=O)NC(=O)[C@H](CCC(=O)O)N(C)C(=O)[C@H](Cc2c[nH]c3ncccc23)NC(=O)[C@@H]2CNCCN2C(=O)[C@H](Cc2c[nH]cn2)NC1=O [SEQ ID NO. 264] ({CH2CO}-[Nle]H[Pip(4-aza)][Trp(7-aza)][NMeE]N[4Pal][Trp(7-Cl)][αMeS][Phe(4-COOH)]Y[Sar][Trp(βS-Me,7-OMe)]C-NH2; thioether N-14) | 1.49 | 
5 | CCCC[C@@H]1NC(=O)CSC[C@@H](C(N)=O)NC(=O)[C@H]([C@@H](C)c2c[nH]c3c(OC)cccc23)NC(=O)[C@@H](C)N(C)C(=O)[C@H](Cc2ccc(O)cc2)NC(=O)[C@H](Cc2ccc(C(=O)O)cc2)NC(=O)[C@](C)(CO)NC(=O)[C@H](Cc2c[nH]c3c(Cl)cccc23)NC(=O)[C@H](Cc2ccncc2)NC(=O)[C@H](CC(N)=O)NC(=O)[C@H]2CCCN2C(=O)[C@H](Cc2c[nH]c3ccccc23)NC(=O)[C@@H]2CNCCN2C(=O)[C@H](Cc2ccncc2)NC1=O [SEQ ID NO. 276] ({CH2CO}-[Nle][4Pal][Pip(4-aza)]W[dP]N[4Pal][Trp(7-Cl)][αMeS][Phe(4-COOH)]Y[dNMeA][Trp(βS-Me,7-OMe)]C-NH2; thioether N-14) | 2.41 | 
6 | CCCCC[C@@H]1NC(=O)[C@@H]2CC[C@@H](C2)NC(=O)[C@H]([C@@H](C)c2c[nH]c3c(OC)cccc23)NC(=O)CN(C)C(=O)[C@H](Cc2ccc(C(N)=O)cc2)NC(=O)[C@H](Cc2ccc(C(N)=O)cc2)NC(=O)[C@](C)(CO)NC(=O)[C@H](Cc2c[nH]c3c(C#N)cccc23)NC(=O)[C@H](Cc2ccc(C(=O)O)cc2)NC(=O)[C@H](CC(N)=O)NC(=O)[C@H]2C[C@H](O)CN2C(=O)[C@H](Cc2c[nH]c3ccccc23)NC(=O)[C@H](CCC(=O)O)NC(=O)[C@H]([C@@H](C)c2ccncc2)NC1=O [SEQ ID NO. 280] (cyclo([Ahp(2)][4Pal(3S-Me)]EW[dHyp]N[Phe(4-COOH)][Trp(7-CN)][αMeS][Phe(4-CONH2)][Phe(4-CONH2)][Sar][Trp(βS-Me,7-OMe)][X1])) |  | 0.25
